Laboratory results as given in the NIST ThermoML archive (doi:10.1021/acs.jced.8b00578).
Numbers after ± are expanded uncertainties.

Columns and labels:
[1] = Crystal; DSC
[2] = Molar enthalpy of transition or fusion; details: Crystal; DSC

Triple point temperature [1]: 494.4 ± 0.81 K | Molar enthalpy of transition or fusion [2]: 6.62 ± 0.311 kcal/mol
Structure (SMILES): O=C(O)c1cc2ccccc2cc1O [3-hydroxy-2-naphthoic acid]
